Read-outs that look alike come from different tables or passages of the source.
How the values were obtained:
[1] = test system: vessels of the glans penis; test: Vasodilatory action, into the corpus cavernosum versus topical; assay type: in vivo; conditions: external application; compared with misoprostol
Description: This is due to the differences in the mechanism of action on erectile function between misoprostol and other vasodilators (e.g. alprostadil): misoprostol applied topically can penetrate into the corpora cavernosa and can act on the smooth muscle fibers of the vessels, compared to other vasodilators. Further, its major site of action is on the vessels of the glans penis, and to a lesser extent, the prepuce.

[2] = test system: human male subjects having ED; test: Clinical trials in human male subjects having ED; assay type: in vivo
Procedure: Subjects were 52 men aged 22-67 years, with ED of various causes. […] In all trials with these subjects, the following methods were applied successively for from a few days to 4 weeks: intracavernosal injection of 1.0 ml papaverine solution, 40 μγ/ml; […]; […]; topical application to the glans penis 0.08 to 0.1 ml, misoprostol gel 1000 μg/ml; intraurethral application of 0.08 to 0.1 ml misoprostol gel 1000 μg/ml; and topical application to the glans penis 0.1 ml. Gel of placebo.
In the tests using either the gel or cream containing about […] of misoprostol per 0.1 ml, the formulation was applied by the patients themselves using their finger and a few retroactive movements of the prepuce on the glans of penis until the ointment was completely absorbed. The intraurethral gel was instilled by the patients with help of a thin syringe and a lubricating medium (propylene glycol or glycerin) to facilitate insertion of the syringe.
In some patients with venous leak problems, a bandage tourniquet with a rubber band (or condom) on the base of the penis was applied 15-20 minutes after application of misoprostol. This method was particularly effective. […] In various subjects with ED due to one of several different causes, “pelvic exercises” were recommended (Kegel exercises) while the erection was developing. […] All tests were performed in the clinic without visual or any other type of stimulation.

Solubility in water = assay type: physicochemical
[3] = human, in vivo
[4] = cited from earlier work
[5] = Single high dosage, systemic undesirable effects (Example 9); conditions: in the presence of α-cyclodextrin
[6] = at 35° C.; cited from earlier work
[7] = total (N = 52), externally applied gel, 80-100 μg
[8] = total (N = 52), intraurethral applied gel, 80-100 μg
[9] = total (N = 52), intracavernosal injection, 0.5 ml of 1.0 mg/ml
[10] = total (N = 52), intraurethral ointment or γ-cyclodextrin complex in K-Y jelly, 1000 μg PGE1 in 0.1 ml
[11] = total (N = 52), intracavernosal injection, 1 ml of 4%

In the case of `CCCCC(C)(O)C/C=C/[C@H]1[C@H](O)CC(=O)[C@@H]1CCCCCCC(=O)O` (mixture of isomers) [misoprostol acid], the topical vasodilation [1] is reported as “equivalent strong topical vasodilation”.

For `CCCCC(C)(O)C/C=C/[C@H]1[C@H](O)CC(=O)[C@@H]1CCCCCCC(=O)OC` (mixture of isomers) [misoprostol, (11a 13E)-(±)-11,16-dihydroxy-16-methyl-9-oxoprost-13-en-1-oic acid methyl ester], the “allergic or other topical reaction” value ([2]; application to glans penis or urethra) was “No allergic or any other topical reaction was reported except for redness of the glans”, the “subjects having a positive pharmacological outcome” value ([2]; hormonal ED (N = 1), externally applied gel, 80-100 μg) was 1 and the “subjects having a positive pharmacological outcome” value ([2]; hormonal ED (N = 1), intraurethral applied gel, 80-100 μg) was 1. For the same compound, the “subjects having a positive pharmacological outcome” value ([2]; neurogenic ED (N = 5), externally applied gel, 80-100 μg) was 4, the “subjects having a positive pharmacological outcome” value ([2]; neurogenic ED (N = 5), intraurethral applied gel, 80-100 μg) was 5 and the “subjects having a positive pharmacological outcome” value ([2]; psychogenic ED (N = 15), externally applied gel, 80-100 μg) was 13. For the same compound, the “subjects having a positive pharmacological outcome” value ([2]; psychogenic ED (N = 15), intraurethral applied gel, 80-100 μg) was 14, the “percent of subjects having a positive pharmacological outcome” value [2, 7] was 62% and the “subjects having a positive pharmacological outcome” value [2, 7] was 32. For the same compound, the “percent of subjects having a positive pharmacological outcome” value [2, 8] was 73%, the “subjects having a positive pharmacological outcome” value [2, 8] was 38 and the “subjects having a positive pharmacological outcome” value ([2]; undetermined etiology (N = 7), externally applied gel, 80-100 μg) was 4. For the same compound, the “subjects having a positive pharmacological outcome” value ([2]; undetermined etiology (N = 7), intraurethral applied gel, 80-100 μg) was 5, the “subjects having a positive pharmacological outcome” value ([2]; vascular ED (N = 24), externally applied gel, 80-100 μg) was 10 and the “subjects having a positive pharmacological outcome” value ([2]; vascular ED (N = 24), intraurethral applied gel, 80-100 μg) was 13. For the same compound, the “solubility in water (in words)” value (Solubility in water) was “water soluble”, the “single high dose that can cause systemic undesirable effects (fatigue, erythema and diarrhea)” value [3] was > 1000 micrograms and the “single high dose that can cause systemic undesirable effects (fatigue, erythema and diarrhea)” value ([3]; male) was > 1800 micrograms. The “undesirable effect of oral therapy” value [4] was “male impotence” and the “single higher dose allowed, undesirable effects reduced or eliminated” value [5] was > 2000 micrograms.

For `CCCCC[C@H](O)/C=C/[C@H]1[C@H](O)CC(=O)[C@@H]1CCCCCCC(=O)O` [alprostadil], the “subjects having a positive pharmacological outcome” value ([2]; hormonal ED (N = 1), intracavernosal injection, 0.5 ml of 1.0 mg/ml) was 1, the “subjects having a positive pharmacological outcome” value ([2]; hormonal ED (N = 1), intraurethral ointment or γ-cyclodextrin complex in K-Y jelly, 1000 μg PGE1 in 0.1 ml) was 0 and the “subjects having a positive pharmacological outcome” value ([2]; neurogenic ED (N = 5), intracavernosal injection, 0.5 ml of 1.0 mg/ml) was 4. The “subjects having a positive pharmacological outcome” value ([2]; neurogenic ED (N = 5), intraurethral ointment or γ-cyclodextrin complex in K-Y jelly, 1000 μg PGE1 in 0.1 ml) was 1, the “subjects having a positive pharmacological outcome” value ([2]; psychogenic ED (N = 15), intracavernosal injection, 0.5 ml of 1.0 mg/ml) was 11 and the “subjects having a positive pharmacological outcome” value ([2]; psychogenic ED (N = 15), intraurethral ointment or γ-cyclodextrin complex in K-Y jelly, 1000 μg PGE1 in 0.1 ml) was 9. For the same compound, the “percent of subjects having a positive pharmacological outcome” value [2, 9] was 60%, the “subjects having a positive pharmacological outcome” value [2, 9] was 31 and the “percent of subjects having a positive pharmacological outcome” value [2, 10] was 31%. For the same compound, the “subjects having a positive pharmacological outcome” value [2, 10] was 16, the “subjects having a positive pharmacological outcome” value ([2]; undetermined etiology (N = 7), intracavernosal injection, 0.5 ml of 1.0 mg/ml) was 5 and the “subjects having a positive pharmacological outcome” value ([2]; undetermined etiology (N = 7), intraurethral ointment or γ-cyclodextrin complex in K-Y jelly, 1000 μg PGE1 in 0.1 ml) was 1. The “subjects having a positive pharmacological outcome” value ([2]; vascular ED (N = 24), intracavernosal injection, 0.5 ml of 1.0 mg/ml) was 10, the “subjects having a positive pharmacological outcome” value ([2]; vascular ED (N = 24), intraurethral ointment or γ-cyclodextrin complex in K-Y jelly, 1000 μg PGE1 in 0.1 ml) was 5 and the solubility in water [6] was 8000 micrograms/100 ml.

In the case of `COc1ccc(Cc2nccc3cc(OC)c(OC)cc23)cc1OC` [papaverine], the “subjects having a positive pharmacological outcome” value ([2]; hormonal ED (N = 1), intracavernosal injection, 1 ml of 4%) is reported as 0, the “subjects having a positive pharmacological outcome” value ([2]; neurogenic ED (N = 5), intracavernosal injection, 1 ml of 4%) is reported as 2 and the “subjects having a positive pharmacological outcome” value ([2]; psychogenic ED (N = 15), intracavernosal injection, 1 ml of 4%) is reported as 10. The “percent of subjects having a positive pharmacological outcome” value [2, 11] was 42%, the “subjects having a positive pharmacological outcome” value [2, 11] was 22 and the “subjects having a positive pharmacological outcome” value ([2]; undetermined etiology (N = 7), intracavernosal injection, 1 ml of 4%) was 3. For the same compound, the “subjects having a positive pharmacological outcome” value ([2]; vascular ED (N = 24), intracavernosal injection, 1 ml of 4%) was 7.
